One experiment has as its target T1, topoisomerase I (Homo sapiens, UniProt P11387).
T1 sequence (P11387 1-765): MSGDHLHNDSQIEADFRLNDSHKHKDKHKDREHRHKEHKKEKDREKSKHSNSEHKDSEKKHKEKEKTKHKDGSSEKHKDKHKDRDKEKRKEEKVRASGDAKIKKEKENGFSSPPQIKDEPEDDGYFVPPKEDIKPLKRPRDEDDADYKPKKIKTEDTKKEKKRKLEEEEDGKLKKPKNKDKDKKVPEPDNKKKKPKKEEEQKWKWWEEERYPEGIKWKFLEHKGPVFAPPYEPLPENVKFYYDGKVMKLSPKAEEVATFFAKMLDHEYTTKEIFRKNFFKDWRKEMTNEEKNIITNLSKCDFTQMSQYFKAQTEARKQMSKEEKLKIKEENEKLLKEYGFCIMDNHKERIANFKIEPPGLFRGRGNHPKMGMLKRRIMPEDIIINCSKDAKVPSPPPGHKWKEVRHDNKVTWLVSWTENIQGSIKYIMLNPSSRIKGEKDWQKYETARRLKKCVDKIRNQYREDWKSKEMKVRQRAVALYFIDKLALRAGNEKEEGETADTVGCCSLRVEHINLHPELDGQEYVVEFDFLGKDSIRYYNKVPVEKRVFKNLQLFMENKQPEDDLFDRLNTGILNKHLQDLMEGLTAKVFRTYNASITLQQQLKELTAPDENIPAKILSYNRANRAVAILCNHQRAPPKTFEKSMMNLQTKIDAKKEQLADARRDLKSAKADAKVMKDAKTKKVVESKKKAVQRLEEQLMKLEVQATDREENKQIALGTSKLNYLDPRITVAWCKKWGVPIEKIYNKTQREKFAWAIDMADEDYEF
As to conditions: cited from earlier work.

The test system of experiment [1] is Breast cancer or gastric adenocarcinoma/esophagogastric junction adenocarcinoma. The conditions noted are these: human, in vivo. From the text:
Open-label, Phase 1 dose escalation study.
Part 1 study: Dose escalation study (conducted in Japan)
Breast cancer or gastric adenocarcinoma/esophagogastric junction adenocarcinoma
Objective response rate (ORR; complete response (CR)+partial response (PR)).
Disease control rate (DCR; CR+PR+stable disease (SD)).

In experiment [2] the test system is HER2-positive human breast cancer ST1360B/TDR. The conditions noted are these: mouse, in vivo. The method, then: (§1) Mouse: 6- to 12-week-old female immunodeficient Crl:Nu(Ncr)-Foxn1^Nu mice (Charles River Laboratories Japan, Inc.) were subjected to the experiment.
(§2) Assay and calculation expression: The major axis and minor axis of tumor were measured twice a week by using an electronic digital caliper, and the tumor volume (mm^3) was calculated. The calculation expression is as shown below. Tumor volume (mm^3)=0.52×Major axis (mm)×[Minor axis ([…])]^2
(§3) Tumor excised from a patient with HER2-positive breast cancer that acquired resistance after treatment with T-DM1 was maintained at several passages by transplantation to female immunodeficient mice. […] ST1616B/TDR is tumor derived from a patient who received T-DM1 by continuous administration for 13 months, and ST1360B/TDR is a tumor derived from a patient who received T-DM1 by continuous administration for 3 months.
(§4) A tumor section of the solid tumor was subcutaneously transplanted to the side of the body of each female immunodeficient mouse, and the mice were randomly grouped when the tumor volume reached about 200 mm^3.

In experiment [3] the test system is HER2-positive human breast cancer ST1616B/TDR. As to conditions: mouse, in vivo. As to the method: as §1, §2, §3, §4

With `CC[C@@]1(O)C(=O)OCc2c1cc1n(c2=O)Cc2c-1nc1cc(F)c(C)c3c1c2[C@@H](NC(=O)CO)CC3` [Compound 1], the “topoisomerase I inhibitory effect” value on topoisomerase I (Ogitani Y. et al., Clinical Cancer Research, 2016) is recorded as “confirmed to have a topoisomerase I inhibitory effect”.
With `CC[C@@]1(O)C(=O)OCc2c1cc1n(c2=O)Cc2c-1nc1cc(F)c(C)c3c1c2[C@@H](N)CC3` [exatecan, (1S,9S)-1-amino-9-ethyl-5-fluoro-1,2,3,9,12,15-hexahydro-9-hydroxy-4-methyl-10H,13H-benzo[de]pyrano[3′,4′:6,7]indolizino[1,2-b]quinolin-10,13-dione], the “inhibitory activity on topoisomerase I” value on topoisomerase I (compared with SN-38 and topotecan) is “higher than SN-38”.
Consider T-DM1, for which, in experiment [1], the DCR came to 64% and the ORR is given as 18%. In addition, the “growth of the tumor (tumor volume)” value in experiment [2] is listed as “did not inhibit the growth”. The “growth of the tumor (tumor volume)” value in experiment [3] is listed as “did not inhibit the growth”.
